Results published in patent publication US9732094B2, “Arylquinazolines” (Merck Patent GmbH, priority 2013, dated 2017).
pIC50, pKi: −log10 of the molar value.

How the values were obtained:
[1] = target: Kv11.1 (hERG) (Homo sapiens (Human), UniProt Q12809); test: Kv11.1 ion channel binding assay (Predictor hERG fluorescence polarisation); details: cells marked *: measured using hERG binding assay instead of hERG patch clamp assay; read-out: Ki [Kv1.11 hERG]
Protocol: D) Kv11.1 Ion Channel Binding Assay
Kv11.1 (hERG=human ether a go-go related […]) is a cardiac K^+ channel which should if possible not interact with the test substances. This interaction is determined quantitatively with the aid of the Predictor™ hERG Fluorescence Polarizations (FP) Assays from Life Technologies. In the case of this assay principle, cardiomyocyte cell membranes having a certain proportion of Kv11.1 channels are isolated. A dye-labelled Kv11.1 binding partner gives a high fluorescence polarisation signal by interaction with the Kv11.1. In the case of displacement of the dye, a reduction in the fluorescence polarisation signal occurs.
The assay is carried out automatically as follows: 15 nl of the test substances (highest concentration: 10 mM, 10 concentrations: dilution factors 1:3.16, DMSO) are transferred into an empty microtitre plates having 384 wells by means of an acoustic pipetter. 3 μl of the isolated membranes are subsequently added. Membranes and test substances are incubated at 22° C. for 15 min (+/−5 min). In the next step, the dye-labelled binding partner is added, followed by incubation at 22° C. After incubation for two hours, the measurement of the fluorescence polarisation is carried out on an Envision multimode Reader. Measured raw data are standardised with the aid of Genedata Assay Analyzer. The 1050 and % effect values are calculated in Genedata Condoseo.

[2] = target: DNA-PK (Homo sapiens (Human), UniProt P78527); test: DNA-PK assay (biochemical), flashplate 33P-ATP kinase assay; details: biochemical DNA-PK assay
Procedure, shortened: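 Reactions ran in streptavidin-coated flashplates and were halted by 200 mM EDTA, with a further 30 min at room temperature before saline washing.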

[3] = target: DNA-PK phosphorylation at serine 2056 (Homo sapiens (Human), UniProt P78527); test: DNA-PK phosphorylation at serine 2056 (cellular), bleomycin-treated HCT116 cells, ELISA; type: cell-based; details: cellular DNA-PK phosphorylation at serine 2056, HCT116; read-out: IC50 pDNA-PK
Procedure, shortened: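 Test compounds and bleomycin (10 μM) are added to adherent HCT116 cells for 6 h. Detection uses an HRP-based chemiluminescent ELISA, with phospho-DNA-PK signals standardised to total protein.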

Kv11.1 (hERG), sequence (Q12809 whole entry): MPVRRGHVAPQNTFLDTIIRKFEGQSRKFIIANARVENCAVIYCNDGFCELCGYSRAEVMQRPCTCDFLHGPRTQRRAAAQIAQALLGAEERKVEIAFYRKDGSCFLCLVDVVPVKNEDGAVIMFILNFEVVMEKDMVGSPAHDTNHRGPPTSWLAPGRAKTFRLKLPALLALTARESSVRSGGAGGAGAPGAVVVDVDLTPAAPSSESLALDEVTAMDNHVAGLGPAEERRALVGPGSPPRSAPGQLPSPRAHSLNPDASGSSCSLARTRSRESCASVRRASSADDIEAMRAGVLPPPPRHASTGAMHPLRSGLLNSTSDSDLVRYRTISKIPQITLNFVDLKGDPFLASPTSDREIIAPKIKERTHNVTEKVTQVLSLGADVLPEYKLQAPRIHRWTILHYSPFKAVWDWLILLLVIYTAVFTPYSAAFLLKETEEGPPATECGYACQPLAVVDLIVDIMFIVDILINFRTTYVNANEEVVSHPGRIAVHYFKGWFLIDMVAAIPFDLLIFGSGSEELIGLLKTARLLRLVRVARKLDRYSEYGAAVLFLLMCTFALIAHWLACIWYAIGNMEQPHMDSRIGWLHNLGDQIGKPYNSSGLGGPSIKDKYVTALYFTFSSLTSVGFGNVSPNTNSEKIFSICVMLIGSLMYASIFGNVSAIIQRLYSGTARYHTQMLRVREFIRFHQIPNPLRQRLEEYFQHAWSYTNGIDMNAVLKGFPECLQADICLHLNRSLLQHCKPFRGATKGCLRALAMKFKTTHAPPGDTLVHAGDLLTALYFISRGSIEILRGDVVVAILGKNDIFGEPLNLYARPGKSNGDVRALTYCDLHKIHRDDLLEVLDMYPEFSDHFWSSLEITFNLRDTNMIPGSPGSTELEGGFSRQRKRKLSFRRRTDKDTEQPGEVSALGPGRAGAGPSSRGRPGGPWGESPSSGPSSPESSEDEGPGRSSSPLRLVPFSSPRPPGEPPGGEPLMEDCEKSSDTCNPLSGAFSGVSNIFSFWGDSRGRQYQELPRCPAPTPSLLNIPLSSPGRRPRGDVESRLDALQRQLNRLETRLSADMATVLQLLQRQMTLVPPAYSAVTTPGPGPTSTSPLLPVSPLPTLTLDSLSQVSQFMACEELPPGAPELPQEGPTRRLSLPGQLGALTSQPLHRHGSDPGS

| Structure (SMILES) | pKi [1] | pIC50 [2] | pIC50 [3] |
| --- | --- | --- | --- |
| Cc1nccnc1C(O)c1ccc(F)c(-c2ncnc3cc(N4CCOCC4)sc23)c1 (stereo not drawn) [Example 246, [4-Fluoro-3-(6-morpholin-4-yl-thieno[3,2-d}-pyrimidin-4-yl)-phenyl]-(3-methyl-pyrazin-2-yl)-methanol] | < 4.60 | 8.15 to 8.52 | 5.30 to 6.30 |
| COc1nccnc1C(O)c1cc(-c2ncnc3cc(N4CCOCC4)cc(F)c23)c(F)cc1Cl (stereo not drawn) [Example 249, [2-Chloro-4-fluoro-5-(5-fluoro-7-morpholin-4-yl-quinazolin-4-yl)-phenyl]-(3-methoxy-pyrazin-2-yl)-methanol] | < 4.60 | > 8.52 | > 6.30 |
| Cc1nccnc1[C@@H](O)c1ccc(F)c(-c2ncnc3cc(N4CCOCC4)cc(F)c23)c1 [Example 251, (S)-[4-fluoro-3-(5-fluoro-7-morpholin-4-ylquinazolin-4-yl)-phenyl]-(3-methyl-pyrazin-2-yl)-methanol] | < 4.60 | 8.15 to 8.52 | 5.30 to 6.30 |
| CNC(=O)C(c1cc(-c2ncnc3cc(N4CCOCC4)ccc23)c(F)cc1Cl)c1nccnc1C (stereo not drawn) [Example 254, 2-[2-Chloro-4-fluoro-5-(7-morpholin-4-yl-quinazolin-4-yl)-phenyl]-N-methyl-2-(3-methyl-pyrazin-2-yl)acetamide] | < 4.60 | 7.52 to 8.15 | 4.52 to 5.00 |
| COc1ccc(C(O)c2ccc(F)c(-c3ncnc4cc(N5CCOCC5)cc(F)c34)c2)nn1 (stereo not drawn) [Example 255, [4-Fluoro-3-(5-fluoro-7-morpholin-4-yl-quinazolin-4-yl)-phenyl]-(6-methoxy-pyridazin-3-yl)-methanol] | < 4.60 | 7.52 to 8.15 | > 6.30 |
| COc1ccc(C(O)c2ccc(F)c(-c3ncnc4cc(N5CCOCC5)cc(F)c34)c2)nn1 (stereo not drawn) [Example 256, [4-Fluoro-3-(5-fluoro-7-morpholin-4-yl-quinazolin-4-yl)-phenyl]-(6-methoxy-pyridazin-3-yl)-methanol] | < 4.60 | > 8.52 | > 6.30 |
| [2H]C1([2H])OC([2H])([2H])C([2H])([2H])N(c2ccc3c(-c4cc(C(O)c5nccnc5OC)c(Cl)cc4F)ncnc3c2)C1([2H])[2H] (stereo not drawn) [Example 258, [2-Chloro-4-fluoro-5-[7-(2,2,3,3,5,5,6,6-octadeutenomorpholin-4-yl)quinazolin-4-yl]phenyl]-(3-methoxypyrazin-2-yl)methanol] | < 4.60 | 8.15 to 8.52 | > 6.30 |
| [2H]C1([2H])OC([2H])([2H])C([2H])([2H])N(c2ccc3c(-c4cc(C(O)c5nccnc5C)ccc4F)ncnc3c2)C1([2H])[2H] (stereo not drawn) [Example 259, [4-Fluoro-3-[7-(2.2,3,3,5,5,6,6-octadeuteriomorpholin-4-yl)quinazolin-4-yl]phenyl]-(3-methyl-pyrazin-2-yl)-methanol] | < 4.60 | > 8.52 | > 6.30 |
| Cc1nccnc1C(O)c1cc(-c2ncnc3cc(N4CCOCC4)sc23)c(F)cc1Cl (stereo not drawn) [Example 264, [2-Chloro-4-fluoro-5-(6-morpholin-4-yl-thieno[3,2-d}-pyrimidin-4-yl)-phenyl]-(3-methyl-pyrazin-2-yl)-methanol] | < 4.60 | > 8.52 | > 6.30 |
| Cc1nccnc1C(O)c1ccc(F)c(-c2ncnc3cc(N4CCOCC4)sc23)c1 (stereo not drawn) [Example 265, [4-Fluoro-3-(6-morpholin-4-yl-thieno[3,2-d}-pyrimidin-4-yl)-phenyl]-(3-methyl-pyrazin-2-yl)-methanol] | < 4.60 | > 8.52 | > 6.30 |
| COc1nccnc1C(O)c1ccc(F)c(-c2ncnc3cc(N4CCOCC4)cc(F)c23)c1 (stereo not drawn) [Example 267, [4-Fluoro-3-(5-fluoro-7-morpholin-4-yl-quinazolin-4-yl)-phenyl]-(3-methoxy-pytazin-2-yl)-methanol] | < 4.60 | > 8.52 | > 6.30 |
| Cc1nccnc1C(O)c1ccc(F)c(-c2ncnc3cc(N4CCOCC4)cc(F)c23)c1 (stereo not drawn) [Example 268, [4-Fluoro-3-(5-fluoro-7-morpholin-4-ylquinazolin-4-yl)phenyl]-(3-methylpyrazin-2-yl)methanol] | < 4.60 | > 8.52 | > 6.30 |
| Cc1nccnc1C(C(N)=O)c1cc(-c2ncnc3cc(N4CCOCC4)sc23)c(F)cc1Cl (stereo not drawn) [Example 269, 2-[2-Chloro-4-fluoro-5-(6-morpholin-4-yl-thieno[3,2-d}-pyrimidin-4-yl)-phenyl]-2-(3-methyl-pyrazin-2-yl)-acetamide] | < 4.60 | 8.15 to 8.52 | 5.30 to 6.30 |
| Cc1nccnc1C(C(N)=O)c1ccc(F)c(-c2ncnc3cc(N4CCOCC4)sc23)c1 (stereo not drawn) [Example 270, 2-[4-Fluoro-3-(6-morpholin-4-yl-thieno[3,2-d}-pyrimidin-4-yl)-phenyl]-2-(3-methyl-pyrazin-2-yl)-acetamide] | < 4.60 | 8.15 to 8.52 | 5.00 to 5.30 |
| COc1ccc(C(C(N)=O)c2cc(-c3ncnc4cc(N5CCOCC5)sc34)c(F)cc2Cl)nn1 (stereo not drawn) [Example 272, 2-[2-Chloro-4-fluoro-5-(6-morpholin-4-yl-thieno[3,2-d}-pyrimidin-4-yl)-phenyl]-2-(6-methoxy-pyridazin-3-yl)acetamide] | < 4.60 | 8.15 to 8.52 | 5.30 to 6.30 |
| COc1ccc(C(O)c2cc(-c3ncnc4cc(N5CCOCC5)cc(F)c34)c(F)cc2Cl)nn1 (stereo not drawn) [Example 278, [2-chloro-4-fluoro-5-(5-fluoro-7-morpholin-4-ylquinazolin-4-yl)phenyl]-(6-methoxypyridazin-3-yl)methanol] | < 4.60 | > 8.52 | > 6.30 |
| OC(c1ccc(F)c(-c2ncnc3cc(N4CCOCC4)ccc23)c1)c1nccn2ncnc12 (stereo not drawn) [Example 279, [4-Fluoro-3-(7-morpholin-4-yl-quinazolin-4-yl)-phenyl]-[1,2,4]-triazolo[1,5-a]-pyrazin-8-ylmethanol] | < 4.60 | 8.15 to 8.52 | 5.00 to 5.30 |
| NC(=O)C(c1ccc(F)c(-c2ncnc3cc(N4CCOCC4)ccc23)c1)c1nccn2ncnc12 (stereo not drawn) [Example 280, 2-[4-Fluoro-3-(7-morpholin-4-yl-quinazolin-4-yl)-phenyl]-2-[1,2,4]-triazolo[1,5-a]-pyrazin-8-yl-acetamide] | < 4.60 | 7.52 to 8.15 | 4.52 to 5.00 |
| COc1ccc(C(O)c2ccc(F)c(-c3ncnc4cc(N5CCOCC5)c(F)cc34)c2)nn1 (stereo not drawn) [Example 282, [4-Fluoro-3-(6-fluoro-7-morpholin-4-yl-quinazolin-4-yl)-phenyl]-(6-methoxy-pyridazin-3-yl)-methanol] | < 4.60 | < 7.52 | 4.52 to 5.00 |
| NC(=O)C(c1ccc(F)c(-c2ncnc3cc(N4CCOCC4)ccc23)c1)c1nncc2ccsc12 (stereo not drawn) [Example 284, 2-[4-Fluoro-3-(7-morpholin-4-yl-quinazolin-4-yl)-phenyl]-2-thieno-[2,3-d}pyridazin-7-yl-acetamide] | < 4.60 | 8.15 to 8.52 | 4.52 to 5.00 |
| COc1nnc(Cl)cc1C(O)c1ccc(F)c(-c2ncnc3cc(N4CCOCC4)ccc23)c1 (stereo not drawn) [Example 286, (6-Chloro-3-methoxy-pyridazin-4-yl)-[4-fluoro-3-(7-morpholin-4-yl-quinazolin-4-yl)-phenyl]methanol] | < 4.60 | 7.52 to 8.15 | 5.00 to 5.30 |
| CN1N=C(C(O)c2cc(-c3ncnc4cc(N5CCOCC5)ccc34)c(F)cc2Cl)CCC1=O (stereo not drawn) [Example 288, 6-{[2-Chloro-4-fluoro-5-(7-morpholin-4-yl-quinazolin-4-yl)-phenyl]hydroxy-methyl}-2-methyl-4,5-dihydro-2H-pyridazin-3-one] | < 4.60 | 7.52 to 8.15 | 5.00 to 5.30 |
| OC(c1ccc(F)c(-c2ncnc3cc(N4CCOCC4)ccc23)c1)c1ncnc2ccoc12 (stereo not drawn) [Example 443, [4-fluoro-3-(7-morpholin-4-yl-quinazolin-4-yl)-phenyl]furo[3,2-d}-pyrimidin-4-yl-methanol] | < 4.60 | 8.15 to 8.52 | 5.30 to 6.30 |
| COc1ccc(C(O)c2cc(-c3ncnc4cc(N5CCOCC5)ccc34)ccc2Cl)nn1 (stereo not drawn) [Example 459, [2-Chloro-5-(7-morpholin-4-yl-quinazolin-4-yl)-phenyl]-(6-methoxy-pyridazin-3-yl)-methanol] | < 4.60 | 8.15 to 8.52 | 5.30 to 6.30 |
| COc1ccc(C(O)c2cc(-c3ncnc4cc(N5CCOCC5)ccc34)ccc2Cl)nn1 (stereo not drawn) [Example 460, [2-Chloro-5-(7-morpholin-4-yl-quinazolin-4-yl)-phenyl]-(6-methoxy-pyridazin-3-yl)-methanol] | < 4.60 | 8.15 to 8.52 | > 6.30 |
